According to ChEMBL document CHEMBL5150061, “Design and Synthesis of Fibroblast Growth Factor Receptor (FGFR) and Histone Deacetylase (HDAC) Dual Inhibitors for the Treatment of Cancer” (J Med Chem, 2022):
Each block holds one compound with its values, some of them ahead of it. Activity calls are given as the source filed them. The rule behind the calls is not given here.

Assays:
[1] = target: Histone deacetylase 1 (Homo sapiens, UniProt Q13547); assay: Inhibition of HDAC1 (unknown origin)
[2] = system: HCT-116; assay: cells; format: functional, cell-based; conditions: Homo sapiens, HCT-116, 72 h
[3] = system: SNU-16; conditions: Homo sapiens, dose 1-100 nM, time 36.0 hrs
[4] = cells; format: functional, cell-based; conditions: Homo sapiens, KATO III, 72 h
[5] = system: Jurkat; assay: cells; format: functional, cell-based; conditions: Homo sapiens, 72 h
[6] = system: SNU-16; conditions: Homo sapiens, dose 1-100 nM, time 36.0 hrs; remark: listed apart in the source
[7] = system: K562; assay: cells; format: functional, cell-based; conditions: Homo sapiens, K562, 72 h
[8] = system: SNU-16; assay: cells; format: functional, cell-based; conditions: Homo sapiens, SNU-16, 72 h
[9] = system: A2780; assay: cells; format: functional, cell-based; conditions: Homo sapiens, A2780, 72 h
[10] = Toxicity in BALB/c nude mouse xenografted with human HCT-116 cells assessed as reduction in body weight at 30 mg/kg/day, po administered for 18 days and measured every 3 days; format: organism-based; conditions: in vivo, 432 h, time 18 day
[11] = system: SNU-16; assay: Induction of apoptosis in human SNU-16 cells assessed as dead cells at 1 uM incubated for 72 hrs by annexin-V/FITC propidium iodide staining based flow cytometry analysis (reference value: […]); format: functional
[12] = system: SNU-16; assay: Induction of apoptosis in human SNU-16 cells assessed as dead cells at 0.3 uM incubated for 72 hrs by annexin-V/FITC propidium iodide staining based flow cytometry analysis (reference value: […]); format: functional
[13] = Toxicity in BALB/c nude mouse xenografted with human SNU-16 cells assessed as reduction in body weight at 50 mg/kg/day, ip administered for 18 days and measured every 3 days; format: organism-based; conditions: in vivo, 432 h, time 18 day
[14] = system: SNU-16; assay: Induction of apoptosis in human SNU-16 cells assessed as early apoptotic cells at 1 uM incubated for 72 hrs by annexin-V/FITC propidium iodide staining based flow cytometry analysis (reference value: 3.02%); format: functional
[15] = system: SNU-16; assay: Induction of apoptosis in human SNU-16 cells assessed as late apoptotic cells at 1 uM incubated for 72 hrs by annexin-V/FITC propidium iodide staining based flow cytometry analysis (reference value: 3.41%); format: functional
[16] = system: SNU-16; assay: Induction of apoptosis in human SNU-16 cells assessed as early apoptotic cells at 0.03 uM incubated for 72 hrs by annexin-V/FITC propidium iodide staining based flow cytometry analysis (reference value: 3.02%); format: functional
[17] = system: SNU-16; assay: Induction of apoptosis in human SNU-16 cells assessed as late apoptotic cells at 0.3 uM incubated for 72 hrs by annexin-V/FITC propidium iodide staining based flow cytometry analysis (reference value: 3.41%); format: functional
[18] = system: SNU-16; assay: Induction of apoptosis in human SNU-16 cells assessed as live cells at 0.1 uM incubated for 72 hrs by annexin-V/FITC propidium iodide staining based flow cytometry analysis (reference value: 90.92%); format: functional
[19] = system: SNU-16; assay: Induction of apoptosis in human SNU-16 cells assessed as late apoptotic cells at 0.1 uM incubated for 72 hrs by annexin-V/FITC propidium iodide staining based flow cytometry analysis (reference value: 3.41%); format: functional
[20] = system: SNU-16; assay: Induction of apoptosis in human SNU-16 cells assessed as dead cells at 0.03 uM incubated for 72 hrs by annexin-V/FITC propidium iodide staining based flow cytometry analysis (reference value: […]); format: functional
[21] = system: SNU-16; assay: Induction of apoptosis in human SNU-16 cells assessed as early apoptotic cells at 0.1 uM incubated for 72 hrs by annexin-V/FITC propidium iodide staining based flow cytometry analysis (reference value: 3.02%); format: functional
[22] = system: SNU-16; assay: Induction of apoptosis in human SNU-16 cells assessed as live cells at 0.3 uM incubated for 72 hrs by annexin-V/FITC propidium iodide staining based flow cytometry analysis (reference value: 90.92%); format: functional
[23] = system: SNU-16; assay: Induction of apoptosis in human SNU-16 cells assessed as early apoptotic cells at 0.3 uM incubated for 72 hrs by annexin-V/FITC propidium iodide staining based flow cytometry analysis (reference value: 3.02%); format: functional
[24] = system: SNU-16; assay: Induction of apoptosis in human SNU-16 cells assessed as dead cells at 0.1 uM incubated for 72 hrs by annexin-V/FITC propidium iodide staining based flow cytometry analysis (reference value: […]); format: functional
[25] = system: SNU-16; assay: Induction of apoptosis in human SNU-16 cells assessed as late apoptotic cells at 0.03 uM incubated for 72 hrs by annexin-V/FITC propidium iodide staining based flow cytometry analysis (reference value: 3.41%); format: functional
[26] = system: SNU-16; assay: Induction of apoptosis in human SNU-16 cells assessed as live cells at 0.03 uM incubated for 72 hrs by annexin-V/FITC propidium iodide staining based flow cytometry analysis (reference value: 90.92%); format: functional
[27] = system: SNU-16; assay: Induction of apoptosis in human SNU-16 cells assessed as live cells at 1 uM incubated for 72 hrs by annexin-V/FITC propidium iodide staining based flow cytometry analysis (reference value: 90.92%); format: functional
[28] = target: T1, Protein deacetylase HDAC6 (Homo sapiens, UniProt Q9UBN7); assay: Inhibition of HDAC6 (unknown origin)
T1 sequence (Q9UBN7 whole entry): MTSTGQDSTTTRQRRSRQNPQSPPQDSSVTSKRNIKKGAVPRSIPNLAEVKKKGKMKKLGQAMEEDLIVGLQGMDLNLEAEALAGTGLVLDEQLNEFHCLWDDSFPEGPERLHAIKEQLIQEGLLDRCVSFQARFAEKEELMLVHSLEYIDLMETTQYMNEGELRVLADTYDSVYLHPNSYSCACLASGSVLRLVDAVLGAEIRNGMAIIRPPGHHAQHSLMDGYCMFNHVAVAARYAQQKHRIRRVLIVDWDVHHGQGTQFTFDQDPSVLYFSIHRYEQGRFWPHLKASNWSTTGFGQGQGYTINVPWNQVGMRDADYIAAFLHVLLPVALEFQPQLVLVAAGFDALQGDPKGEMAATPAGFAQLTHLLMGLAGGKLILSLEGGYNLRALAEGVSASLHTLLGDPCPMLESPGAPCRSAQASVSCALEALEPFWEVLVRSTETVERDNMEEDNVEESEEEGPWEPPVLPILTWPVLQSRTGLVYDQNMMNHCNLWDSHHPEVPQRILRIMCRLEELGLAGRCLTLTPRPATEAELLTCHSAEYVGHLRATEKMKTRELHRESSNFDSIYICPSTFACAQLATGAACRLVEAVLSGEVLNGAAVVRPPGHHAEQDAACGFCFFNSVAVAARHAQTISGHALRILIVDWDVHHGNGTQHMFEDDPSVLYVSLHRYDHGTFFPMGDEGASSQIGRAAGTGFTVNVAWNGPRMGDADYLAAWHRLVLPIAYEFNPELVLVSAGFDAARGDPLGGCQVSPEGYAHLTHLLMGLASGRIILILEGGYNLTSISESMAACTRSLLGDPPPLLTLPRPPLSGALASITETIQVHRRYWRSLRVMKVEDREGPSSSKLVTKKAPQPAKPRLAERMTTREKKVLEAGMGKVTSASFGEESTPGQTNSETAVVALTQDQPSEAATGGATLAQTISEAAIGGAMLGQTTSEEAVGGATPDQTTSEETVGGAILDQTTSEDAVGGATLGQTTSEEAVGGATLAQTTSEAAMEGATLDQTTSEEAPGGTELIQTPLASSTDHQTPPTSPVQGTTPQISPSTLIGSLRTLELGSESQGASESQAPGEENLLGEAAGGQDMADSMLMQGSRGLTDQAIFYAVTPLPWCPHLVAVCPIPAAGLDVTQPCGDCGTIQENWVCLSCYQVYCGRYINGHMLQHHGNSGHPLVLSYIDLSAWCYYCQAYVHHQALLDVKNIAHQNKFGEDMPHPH

[29] = target: Fibroblast growth factor receptor 1 (Homo sapiens, UniProt P11362); assay: Inhibition of FGFR1 (unknown origin)
Sequence of Fibroblast growth factor receptor 1 (P11362 whole entry): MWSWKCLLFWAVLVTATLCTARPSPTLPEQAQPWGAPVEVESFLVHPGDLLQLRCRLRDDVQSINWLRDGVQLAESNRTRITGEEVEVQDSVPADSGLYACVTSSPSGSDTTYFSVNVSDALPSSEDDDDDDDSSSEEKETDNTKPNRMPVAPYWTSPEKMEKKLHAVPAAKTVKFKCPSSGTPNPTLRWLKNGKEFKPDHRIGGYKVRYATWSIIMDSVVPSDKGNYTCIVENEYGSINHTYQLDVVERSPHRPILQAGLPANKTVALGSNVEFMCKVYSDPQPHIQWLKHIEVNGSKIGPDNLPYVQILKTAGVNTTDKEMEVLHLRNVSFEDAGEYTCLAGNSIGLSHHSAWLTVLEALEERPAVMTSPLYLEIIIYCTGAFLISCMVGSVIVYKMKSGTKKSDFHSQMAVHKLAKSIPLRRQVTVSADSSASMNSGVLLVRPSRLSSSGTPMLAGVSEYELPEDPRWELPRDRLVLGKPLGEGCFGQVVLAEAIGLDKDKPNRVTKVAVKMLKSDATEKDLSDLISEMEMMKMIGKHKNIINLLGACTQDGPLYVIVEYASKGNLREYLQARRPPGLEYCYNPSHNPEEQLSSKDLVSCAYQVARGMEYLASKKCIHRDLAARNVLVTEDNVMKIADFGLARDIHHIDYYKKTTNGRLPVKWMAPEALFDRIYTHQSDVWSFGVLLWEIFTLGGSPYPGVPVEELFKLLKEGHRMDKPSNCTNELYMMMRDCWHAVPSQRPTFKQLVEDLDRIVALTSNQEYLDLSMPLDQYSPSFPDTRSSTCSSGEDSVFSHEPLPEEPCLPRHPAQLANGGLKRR

[30] = target: T2, Histone deacetylase 8 (Homo sapiens, UniProt Q9BY41); assay: Inhibition of HDAC8 (unknown origin)
T2 sequence (Q9BY41 whole entry): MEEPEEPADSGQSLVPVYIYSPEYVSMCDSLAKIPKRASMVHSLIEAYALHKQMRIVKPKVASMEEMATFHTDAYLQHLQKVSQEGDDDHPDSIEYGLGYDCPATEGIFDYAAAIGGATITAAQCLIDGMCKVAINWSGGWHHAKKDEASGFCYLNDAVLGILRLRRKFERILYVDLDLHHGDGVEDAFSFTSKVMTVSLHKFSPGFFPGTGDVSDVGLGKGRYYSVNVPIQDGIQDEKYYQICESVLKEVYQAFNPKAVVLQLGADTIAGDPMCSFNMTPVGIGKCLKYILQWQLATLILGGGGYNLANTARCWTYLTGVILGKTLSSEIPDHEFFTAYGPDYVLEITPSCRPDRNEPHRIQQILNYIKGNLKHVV

[31] = target: Fibroblast growth factor receptor 4 (Homo sapiens, UniProt P22455); assay: Inhibition of FGFR4 (unknown origin)
Sequence of Fibroblast growth factor receptor 4 (P22455 whole entry): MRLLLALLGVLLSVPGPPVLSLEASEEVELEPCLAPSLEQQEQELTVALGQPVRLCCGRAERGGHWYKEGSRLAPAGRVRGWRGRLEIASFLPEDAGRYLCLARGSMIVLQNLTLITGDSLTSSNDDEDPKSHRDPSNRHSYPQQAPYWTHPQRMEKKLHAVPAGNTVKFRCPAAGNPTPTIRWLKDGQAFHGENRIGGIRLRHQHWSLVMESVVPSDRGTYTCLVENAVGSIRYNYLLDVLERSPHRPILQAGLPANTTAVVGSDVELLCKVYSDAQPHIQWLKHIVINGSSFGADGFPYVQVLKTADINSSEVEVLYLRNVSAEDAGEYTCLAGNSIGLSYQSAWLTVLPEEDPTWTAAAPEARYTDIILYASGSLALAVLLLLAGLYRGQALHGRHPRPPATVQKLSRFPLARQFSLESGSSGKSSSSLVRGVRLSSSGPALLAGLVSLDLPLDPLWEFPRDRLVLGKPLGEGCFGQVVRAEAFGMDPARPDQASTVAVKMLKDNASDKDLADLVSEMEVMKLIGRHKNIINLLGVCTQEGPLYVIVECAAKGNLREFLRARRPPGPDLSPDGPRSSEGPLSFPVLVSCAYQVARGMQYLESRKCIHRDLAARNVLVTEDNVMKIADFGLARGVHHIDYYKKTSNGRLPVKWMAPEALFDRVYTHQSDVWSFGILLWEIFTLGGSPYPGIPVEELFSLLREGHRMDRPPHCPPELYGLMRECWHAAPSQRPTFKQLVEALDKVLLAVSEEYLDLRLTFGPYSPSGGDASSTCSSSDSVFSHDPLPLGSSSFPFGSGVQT

[32] = target: Fibroblast growth factor receptor 3 (Homo sapiens, UniProt P22607); assay: Inhibition of FGFR3 (unknown origin)
Sequence of Fibroblast growth factor receptor 3 (P22607 whole entry): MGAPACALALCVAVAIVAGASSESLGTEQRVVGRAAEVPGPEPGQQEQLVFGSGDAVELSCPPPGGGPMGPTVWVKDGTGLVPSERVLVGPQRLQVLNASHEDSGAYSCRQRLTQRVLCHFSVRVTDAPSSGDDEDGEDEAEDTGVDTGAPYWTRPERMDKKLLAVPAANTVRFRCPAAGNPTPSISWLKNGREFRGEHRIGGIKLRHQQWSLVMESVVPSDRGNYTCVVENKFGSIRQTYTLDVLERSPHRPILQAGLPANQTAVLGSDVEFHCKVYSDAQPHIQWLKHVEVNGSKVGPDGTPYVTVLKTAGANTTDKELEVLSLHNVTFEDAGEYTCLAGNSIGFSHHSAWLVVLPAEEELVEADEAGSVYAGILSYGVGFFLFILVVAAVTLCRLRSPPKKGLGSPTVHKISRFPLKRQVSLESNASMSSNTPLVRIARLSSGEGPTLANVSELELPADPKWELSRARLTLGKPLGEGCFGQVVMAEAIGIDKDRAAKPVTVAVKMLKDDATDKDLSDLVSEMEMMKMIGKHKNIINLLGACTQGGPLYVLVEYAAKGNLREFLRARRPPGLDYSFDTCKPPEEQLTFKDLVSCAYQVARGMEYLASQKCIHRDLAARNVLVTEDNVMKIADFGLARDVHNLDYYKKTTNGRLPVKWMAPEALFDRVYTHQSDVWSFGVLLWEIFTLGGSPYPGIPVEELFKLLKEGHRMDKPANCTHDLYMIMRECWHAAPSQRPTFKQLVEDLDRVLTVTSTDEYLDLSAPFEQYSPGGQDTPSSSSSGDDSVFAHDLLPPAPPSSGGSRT

[33] = target: Fibroblast growth factor receptor 2 (Homo sapiens, UniProt P21802); assay: Inhibition of FGFR2 (unknown origin)
Sequence of Fibroblast growth factor receptor 2 (P21802 whole entry): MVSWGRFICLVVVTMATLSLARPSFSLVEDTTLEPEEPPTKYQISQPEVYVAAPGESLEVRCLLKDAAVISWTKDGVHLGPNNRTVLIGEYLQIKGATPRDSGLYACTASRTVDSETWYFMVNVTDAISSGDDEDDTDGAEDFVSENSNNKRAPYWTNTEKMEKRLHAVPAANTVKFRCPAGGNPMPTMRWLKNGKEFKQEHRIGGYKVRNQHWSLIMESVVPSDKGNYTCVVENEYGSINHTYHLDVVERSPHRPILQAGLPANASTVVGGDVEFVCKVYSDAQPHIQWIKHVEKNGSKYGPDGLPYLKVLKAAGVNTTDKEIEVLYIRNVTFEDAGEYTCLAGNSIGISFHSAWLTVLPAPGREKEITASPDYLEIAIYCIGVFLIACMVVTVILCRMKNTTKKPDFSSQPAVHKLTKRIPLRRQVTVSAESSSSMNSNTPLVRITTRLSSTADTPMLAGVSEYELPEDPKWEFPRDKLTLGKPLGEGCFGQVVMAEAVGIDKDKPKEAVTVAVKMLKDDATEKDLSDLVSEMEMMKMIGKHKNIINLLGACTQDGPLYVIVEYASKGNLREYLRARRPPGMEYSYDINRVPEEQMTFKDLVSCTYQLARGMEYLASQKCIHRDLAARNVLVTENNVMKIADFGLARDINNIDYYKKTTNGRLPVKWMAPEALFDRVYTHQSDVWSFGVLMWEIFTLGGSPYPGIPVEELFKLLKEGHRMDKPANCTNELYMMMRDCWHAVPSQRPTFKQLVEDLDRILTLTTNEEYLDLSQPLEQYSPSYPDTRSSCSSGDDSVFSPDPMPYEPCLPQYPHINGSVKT

Sequence of Histone deacetylase 1 (Q13547 whole entry): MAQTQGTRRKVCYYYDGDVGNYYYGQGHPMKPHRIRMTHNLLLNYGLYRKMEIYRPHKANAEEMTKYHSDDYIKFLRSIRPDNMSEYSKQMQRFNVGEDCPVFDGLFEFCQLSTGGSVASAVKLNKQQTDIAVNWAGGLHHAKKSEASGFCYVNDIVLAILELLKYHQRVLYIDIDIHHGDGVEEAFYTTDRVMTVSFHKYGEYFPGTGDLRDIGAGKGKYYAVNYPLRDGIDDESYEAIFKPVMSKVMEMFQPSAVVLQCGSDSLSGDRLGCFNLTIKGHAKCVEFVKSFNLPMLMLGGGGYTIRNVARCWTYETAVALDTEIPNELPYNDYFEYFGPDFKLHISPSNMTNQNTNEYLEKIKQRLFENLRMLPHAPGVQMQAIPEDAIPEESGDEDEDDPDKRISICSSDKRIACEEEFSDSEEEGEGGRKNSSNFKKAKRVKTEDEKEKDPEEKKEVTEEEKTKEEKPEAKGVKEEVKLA

IC50 [1]: 653 nM
SMILES: COc1cc(OC)cc(N(CCNC(C)C)c2ccc3ncc(-c4cnn(CCCC(=O)NO)c4)nc3c2)c1

IC50 [1]: > 1000 nM
SMILES: COc1cc(OC)cc(N(CC2CC2)c2ccc3ncc(-c4cnn(CCCC(=O)NO)c4)nc3c2)c1

IC50 [1]: 5.8 nM
IC50 [28]: 13 nM
SMILES: COc1cc(OC)cc(N(CCCCCCC(=O)NO)c2ccc3ncc(-c4cnn(C)c4)nc3c2)c1

IC50 [1]: 157 nM
IC50 [28]: 107 nM
SMILES: COc1cc(OC)cc(N(CCCCC(=O)NO)c2ccc3ncc(-c4cnn(C)c4)nc3c2)c1

IC50 [1]: 77 nM
SMILES: COc1cc(OC)cc(N(CC2CC2)c2ccc3ncc(-c4cnn(CCCCCC(=O)NO)c4)nc3c2)c1

IC50 [1]: 177 nM
SMILES: COc1cc(OC)cc(N(CC2CC2)c2ccc3ncc(-c4cnn(CCCCC(=O)NO)c4)nc3c2)c1

IC50 [1]: 2.6 nM
IC50 [28]: 6.3 nM
SMILES: COc1cc(OC)cc(N(CCCCCC(=O)NO)c2ccc3ncc(-c4cnn(C)c4)nc3c2)c1

IC50 [1]: 172 nM
SMILES: COc1cc(OC)cc(N(CC2CC2)c2ccc3ncc(-c4cnn(CCCCCCCC(=O)NO)c4)nc3c2)c1

Continued, compound first:

SMILES: COc1cc(OC)cc(N(CCNC(C)C)c2ccc3ncc(-c4cnn(CCc5ccc(C(=O)NO)cc5)c4)nc3c2)c1
IC50 [1]: 69 nM

SMILES: COc1cc(OC)cc(N(CCNC(C)C)c2ccc3ncc(-c4cnn(CCCCOc5ccc(C(=O)NO)cc5)c4)nc3c2)c1
IC50 [1]: 160 nM

SMILES: COc1cc(OC)cc(N(CCNC(C)C)c2ccc3ncc(-c4cnn(C)c4)nc3c2)c1 [ERDAFITINIB]
IC50 [2]: 4240 nM
inhibition [3]: Active
IC50 [4]: 4 nM
IC50 [5]: 6810 nM
inhibition [6]: Dde
IC50 [7]: 3020 nM
IC50 [8]: 0.7 nM
IC50 [9]: 20 nM

SMILES: COc1cc(OC)cc(N(CCNC(C)C)c2ccc3ncc(-c4cnn(CCCCCCCC(=O)NO)c4)nc3c2)c1
IC50 [1]: 6.3 nM

SMILES: COc1cc(OC)cc(N(CCNC(C)C)c2ccc3ncc(-c4cnn(Cc5ccc(CC(=O)NO)cc5)c4)nc3c2)c1
IC50 [1]: > 1000 nM

SMILES: COc1cc(OC)cc(N(CCNC(C)C)c2ccc3ncc(-c4cnn(CCCCCC(=O)NO)c4)nc3c2)c1
IC50 [1]: 4.4 nM

SMILES: COc1cc(OC)cc(N(CCNC(C)C)c2ccc3ncc(-c4cnn(CCCCCCCCC(=O)NO)c4)nc3c2)c1
IC50 [1]: 16 nM

SMILES: COc1cc(OC)cc(N(CCNC(C)C)c2ccc3ncc(-c4cnn(Cc5cccc(C(=O)NO)c5)c4)nc3c2)c1
IC50 [1]: > 1000 nM

SMILES: O=C(CCCCCCC(=O)Nc1ccccc1)NO [VORINOSTAT]
Activity [10]: Non-Toxic
Activity [11]: 4.21%
Activity [12]: 6.4%
Activity [13]: Non-Toxic
Activity [14]: 3.16%
Activity [15]: 15.42%
Activity [16]: 3.12%
Activity [17]: 10.46%
Activity [18]: 80.33%
IC50 [7]: 2240 nM
Activity [19]: 9.98%
Activity [20]: 5.77%
Activity [21]: 3.51%
Activity [22]: 80.66%
Activity [23]: 2.48%
Activity [24]: 6.19%
Activity [25]: 6.85%
Activity [26]: 84.26%
Activity [27]: 77.22%

SMILES: COc1cc(OC)cc(N(CCNC(C)C)c2ccc3ncc(-c4cnn(CCC(=O)Nc5ccc(C(=O)NO)cc5)c4)nc3c2)c1
IC50 [1]: 5.7 nM

SMILES: COc1cc(OC)cc(N(CCNC(C)C)c2ccc3ncc(-c4cnn(Cc5ccc(/C=C/C(=O)NO)cc5)c4)nc3c2)c1
IC50 [2]: 60 nM
IC50 [29]: 28 nM
IC50 [4]: 120 nM
IC50 [1]: 47 nM
IC50 [5]: 6380 nM
IC50 [7]: 460 nM
IC50 [8]: 50 nM
IC50 [9]: 60 nM

SMILES: COc1cc(OC)cc(N(CCNC(C)C)c2ccc3ncc(-c4cnn(Cc5ccc(C(=O)NO)cc5)c4)nc3c2)c1
IC50 [1]: > 1000 nM

SMILES: COc1cc(OC)cc(N(CCNC(C)C)c2ccc3ncc(-c4cnn(CCCCCOc5ccc(C(=O)NO)cc5)c4)nc3c2)c1
IC50 [1]: 273 nM

SMILES: COc1cc(OC)cc(N(CCNC(C)C)c2ccc3ncc(-c4cnn(CCOc5ccc(C(=O)NO)cc5)c4)nc3c2)c1
IC50 [30]: 288 nM
IC50 [31]: 1.3 nM
IC50 [1]: 5.9 nM
IC50 [28]: 3.4 nM
IC50 [32]: 0.62 nM
IC50 [33]: 1.9 nM

SMILES: COc1cc(OC)cc(N(CCNC(C)C)c2ccc3ncc(-c4cnn(CCCOc5ccc(C(=O)NO)cc5)c4)nc3c2)c1
IC50 [1]: 126 nM
